Measurements from the NIST ThermoML archive (doi:10.1021/je600554h).

Assay: xn = mol fraction of the nth substance listed
Conditions: 100 kPa, Liquid; for viscosity: Capillary tube (Ostwald / Ubbelohde) method

COC(C)(C)C [2-methoxy-2-methylpropane] + CCCCCCCC
Conditions | mass density [kg/m3] | viscosity [mPa·s]
273.15 K, x1 = 0.1019 | – | 0.685
273.15 K, x1 = 0.1059 | 721.15 | –
273.15 K, x1 = 0.2123 | 724.203 | –
273.15 K, x1 = 0.2189 | – | 0.651
273.15 K, x1 = 0.3019 | 727.065 | –
273.15 K, x1 = 0.3026 | – | 0.622
273.15 K, x1 = 0.4029 | – | 0.597
273.15 K, x1 = 0.4099 | 730.835 | –
273.15 K, x1 = 0.4995 | – | 0.57
273.15 K, x1 = 0.5053 | 734.583 | –
273.15 K, x1 = 0.6005 | 738.614 | –
273.15 K, x1 = 0.6099 | – | 0.549
273.15 K, x1 = 0.6934 | 742.992 | –
273.15 K, x1 = 0.7072 | – | 0.525
273.15 K, x1 = 0.7967 | 748.318 | –
273.15 K, x1 = 0.7981 | – | 0.494
273.15 K, x1 = 0.8941 | – | 0.472
273.15 K, x1 = 0.8975 | 754.329 | –
278.15 K, x1 = 0.1019 | – | 0.638
278.15 K, x1 = 0.1059 | 717.106 | –
278.15 K, x1 = 0.2123 | 720.082 | –
278.15 K, x1 = 0.2189 | – | 0.607
278.15 K, x1 = 0.3019 | 722.866 | –
278.15 K, x1 = 0.3026 | – | 0.583
278.15 K, x1 = 0.4029 | – | 0.559
278.15 K, x1 = 0.4099 | 726.533 | –
278.15 K, x1 = 0.4995 | – | 0.534
278.15 K, x1 = 0.5053 | 730.183 | –
278.15 K, x1 = 0.6005 | 734.106 | –
278.15 K, x1 = 0.6099 | – | 0.514
278.15 K, x1 = 0.6934 | 738.371 | –
278.15 K, x1 = 0.7072 | – | 0.492
278.15 K, x1 = 0.7967 | 743.56 | –
278.15 K, x1 = 0.7981 | – | 0.462
278.15 K, x1 = 0.8941 | – | 0.442
278.15 K, x1 = 0.8975 | 749.42 | –
283.15 K, x1 = 0.1019 | – | 0.597
283.15 K, x1 = 0.1059 | 713.046 | –
283.15 K, x1 = 0.2123 | 715.938 | –
283.15 K, x1 = 0.2189 | – | 0.568
283.15 K, x1 = 0.3019 | 718.644 | –
283.15 K, x1 = 0.3026 | – | 0.545
283.15 K, x1 = 0.4029 | – | 0.523
283.15 K, x1 = 0.4099 | 722.208 | –
283.15 K, x1 = 0.4995 | – | 0.501
283.15 K, x1 = 0.5053 | 725.756 | –
283.15 K, x1 = 0.6005 | 729.573 | –
283.15 K, x1 = 0.6099 | – | 0.483
283.15 K, x1 = 0.6934 | 733.719 | –
283.15 K, x1 = 0.7072 | – | 0.462
283.15 K, x1 = 0.7967 | 738.766 | –
283.15 K, x1 = 0.7981 | – | 0.435
283.15 K, x1 = 0.8941 | – | 0.417
283.15 K, x1 = 0.8975 | 744.471 | –
288.15 K, x1 = 0.1019 | – | 0.559
288.15 K, x1 = 0.1059 | 708.972 | –
288.15 K, x1 = 0.2123 | 711.779 | –
288.15 K, x1 = 0.2189 | – | 0.533
288.15 K, x1 = 0.3019 | 714.403 | –
288.15 K, x1 = 0.3026 | – | 0.514
288.15 K, x1 = 0.4029 | – | 0.492
288.15 K, x1 = 0.4099 | 717.859 | –
288.15 K, x1 = 0.4995 | – | 0.471
288.15 K, x1 = 0.5053 | 721.306 | –
288.15 K, x1 = 0.6005 | 725.009 | –
288.15 K, x1 = 0.6099 | – | 0.454
288.15 K, x1 = 0.6934 | 729.044 | –
288.15 K, x1 = 0.7072 | – | 0.435
288.15 K, x1 = 0.7967 | 733.942 | –
288.15 K, x1 = 0.7981 | – | 0.41
288.15 K, x1 = 0.8941 | – | 0.393
288.15 K, x1 = 0.8975 | 739.489 | –
293.15 K, x1 = 0.1019 | – | 0.525
293.15 K, x1 = 0.1059 | 704.884 | –
293.15 K, x1 = 0.2123 | 707.601 | –
293.15 K, x1 = 0.2189 | – | 0.501
293.15 K, x1 = 0.3019 | 710.139 | –
293.15 K, x1 = 0.3026 | – | 0.483
293.15 K, x1 = 0.4029 | – | 0.464
293.15 K, x1 = 0.4099 | 713.488 | –
293.15 K, x1 = 0.4995 | – | 0.445
293.15 K, x1 = 0.5053 | 716.833 | –
293.15 K, x1 = 0.6005 | 720.419 | –
293.15 K, x1 = 0.6099 | – | 0.428
293.15 K, x1 = 0.6934 | 724.332 | –
293.15 K, x1 = 0.7072 | – | 0.411
293.15 K, x1 = 0.7967 | 729.066 | –
293.15 K, x1 = 0.7981 | – | 0.388
293.15 K, x1 = 0.8941 | – | 0.372
293.15 K, x1 = 0.8975 | 734.467 | –
298.15 K, x1 = 0.1019 | – | 0.495
298.15 K, x1 = 0.1059 | 700.768 | –
298.15 K, x1 = 0.2123 | 703.393 | –
298.15 K, x1 = 0.2189 | – | 0.473
298.15 K, x1 = 0.3019 | 705.856 | –
298.15 K, x1 = 0.3026 | – | 0.455
298.15 K, x1 = 0.4029 | – | 0.439
298.15 K, x1 = 0.4099 | 709.092 | –
298.15 K, x1 = 0.4995 | – | 0.42
298.15 K, x1 = 0.5053 | 712.324 | –
298.15 K, x1 = 0.6005 | 715.799 | –
298.15 K, x1 = 0.6099 | – | 0.405
298.15 K, x1 = 0.6934 | 719.586 | –
298.15 K, x1 = 0.7072 | – | 0.388
298.15 K, x1 = 0.7967 | 724.172 | –
298.15 K, x1 = 0.7981 | – | 0.367
